Results as given in ChEMBL document CHEMBL3351533, “PASS-assisted design, synthesis and antioxidant evaluation of new butylated hydroxytoluene derivatives” (Eur J Med Chem, 2014).

Key:
Assay type in all cases: physicochemical
[1] = Antioxidant activity assessed as DPPH free radical scavenging activity at 100 uM after 60 mins by spectrophotometry; details: 1 h
[2] = Antioxidant activity assessed as inhibition of lipid peroxidation after 1 hr by TBARS assay
[3] = Antioxidant activity assessed as inhibition of lipid peroxidation at 100 uM after 1 hr by TBARS assay
[4] = Antioxidant activity assessed as DPPH free radical scavenging activity after 60 mins by spectrophotometry

| SMILES | Imax [1] | IC50 [2] | Imax [3] | IC50 [4] |
| --- | --- | --- | --- | --- |
| CC(C)(C)c1cc(CSCC(=O)O)cc(C(C)(C)C)c1O | 51.2% | 38.8 µM | 73.99% | 96.7 µM |
| COc1ccccc1NC(=S)NNC(=O)CSCc1cc(C(C)(C)C)c(O)c(C(C)(C)C)c1 | 75.42% | 60.5 µM | 94.75% | 52 µM |
| COc1ccc(NC(=S)NNC(=O)CSCc2cc(C(C)(C)C)c(O)c(C(C)(C)C)c2)cc1 | 76.76% | 30.1 µM | 96.58% | 50.9 µM |
| O=C1O[C@H]([C@@H](O)CO)C(O)=C1O [ASCORBIC ACID] | 71.39% |  |  | 67.8 µM |
| Cc1cc(C(C)(C)C)c(O)c(C(C)(C)C)c1 [BUTYLATED HYDROXYTOLUENE] | 25.23% | 36.7 µM | 79.45% | > 100 µM |

Further compounds by falling IC50 [2], results first:

| Imax [1] | IC50 [2] | Imax [3] | IC50 [4] | SMILES |
| --- | --- | --- | --- | --- |
| 27.83% | 38.9 µM | 76.47% | > 100 µM | COc1ccccc1-n1c(S)nnc1CSCc1cc(C(C)(C)C)c(O)c(C(C)(C)C)c1 |
| 54.69% | 13.2 µM | 89.18% | 90.8 µM | COc1ccccc1Nc1nnc(CSCc2cc(C(C)(C)C)c(O)c(C(C)(C)C)c2)s1 |
| 59.29% | 7.98 µM | 89.84% | 76.8 µM | COc1ccc(Nc2nnc(CSCc3cc(C(C)(C)C)c(O)c(C(C)(C)C)c3)s2)cc1 |
|  | 5.63 µM | 84.69% |  | Cc1c(C)c2c(c(C)c1O)CC[C@@](C)(CCC[C@H](C)CCC[C@H](C)CCCC(C)C)O2 [ALPHA-TOCOPHEROL] |
| 52.94% | 2.85 µM | 86.43% | 92.7 µM | COc1ccc(-n2c(S)nnc2CSCc2cc(C(C)(C)C)c(O)c(C(C)(C)C)c2)cc1 |
